Laboratory results as given in patent US6667346B2, “Method for protecting cells and tissues from ionizing radiation toxicity with α, β unsaturated aryl sulfones” (Temple University - Of The Commonwealth System of Higher …, priority 2001, dated 2003).

Experiments:
HFL-1 cells = test: Radioprotective effects on cultured normal cells (colony formation after irradiation); assay type: cell-based, human; conditions: HFL-1 normal diploid lung fibroblasts; 2.5 to 20 micromolar for 24 hrs before 10 Gy or 15 Gy IR; colonies counted after 3 weeks
Experimental: HFL-1 cells, which are normal diploid lung fibroblasts, were plated into 24 well dishes at a cell density of 3000 cells per 10 mm^2 in DMEM completed with 10% fetal bovine serum and antibiotics. The test compounds listed in Table 16 were added to the cells 24 hours later in select concentrations from 2.5 to 20 micromolar, inclusive, using DMSO as a solvent. Control cells were treated with DMSO alone. The cells were exposed to the test compound or DMSO for 24 hrs. The cells were then irradiated with either 10 Gy (gray) or 15 Gy of ionizing radiation (IR) using a J. L. Shepherd Mark I, Model 30-1 Irradiator equipped with ^137cesium as a source.
After irradiation, the medium on the test and control cells was removed and replaced with fresh growth medium without the test compounds or DMSO. The irradiated cells were incubated for 96 hours and duplicate wells were trypsinized and replated onto 100 mm^2 tissue culture dishes. The replated cells were grown under normal conditions with one change of fresh medium for 3 weeks. The number of colonies from each 100 mm^2 culture dish, which represents the number of surviving cells, was determined by staining the dishes as described below.
To visualize and count the colonies derived from the clonal outgrowth of individual radioprotected cells, the medium was removed and the plates were washed one time with room temperature phosphate buffered saline. The cells were stained with a 1:10 diluted Modified Giemsa staining solution (Sigma) for 20 minutes. The stain was removed, and the plates were washed with tap water. The plates were air dried, the number of colonies from each plate were counted and the average from duplicate plates was determined.
A “+” indicates radioprotective activity of between 2- and 4.5-fold at the concentrations tested. Fold protection was determined by dividing the average number of colonies from the test plates by the average number of colonies on the control plates.

C57 black mice = test: Protection of mice from radiation toxicity by pre-treatment (mortality after 8 Gy); assay type: in vivo
Experimental: C57 black mice age 10-12 weeks (Taconic) were divided into two treatment groups of 10 mice each. One group, designated the “200×2” group, received intraperitoneal injections of 200 micrograms (E)-4-carboxystyryl-4-chlorobenzylsulfone dissolved in DMSO (a 10 mg/Kg dose, based on 20 g mice) 18 and 6 hours before irradiation with 8 Gy gamma radiation. The other group, designated “500×2,” received intraperitoneal injections of 500 micrograms (E)-4-carboxystyryl-4-chlorobenzylsulfone dissolved in DMSO (a 25 mg/Kg dose, based on 20 g mice) 18 and 6 hours before irradiation with 8 Gy gamma radiation. A control group of 16 animals received 8 Gy gamma radiation alone.

DU145 cells = test: Tumor cell killing by ionizing radiation, compound added after IR treatment; assay type: cell-based; conditions: for Interference with killing of tumor cells by ionizing radiation: continuous exposure, added immediately following 10 Gy IR
Experimental: DU145 cells were plated in 6 well dishes at a cell density of 1.0×10^5 cells per 35 mm^2 in DMEM completed with 10% fetal bovine serum and antibiotics. The plates were incubated overnight and the cells were irradiated with 10 Gy of ionizing irradiation. Compound 1 (1.0 uM and 2.0 uM) or Compound 13 (10.0 uM and 20.0 uM) in DMSO was added to the cells immediately following the IR treatment.

C57 B6/J mice = test: Radioprotective effect in mice when given after radiation exposure (mortality after 8 Gy); assay type: in vivo
Experimental: One group, designated the “200×2” group, received intraperitoneal injections of 200 micrograms (E)-4-carboxystyryl-4-chlorobenzylsulfone dissolved in DMSO (a 10 mg/Kg dose, assuming 20 g mice) 18 and 6 hours before irradiation with 8 Gy gamma radiation. The other group, designated “200 Post,” received an intraperitoneal injection of 200 micrograms (E)-4-carboxystyryl-4-chlorobenzylsulfone dissolved in DMSO (a 10 mg/Kg dose, based on 20 g mice) 15 minutes after irradiation with 8 Gy gamma radiation. A control group of 16 animals received 8 Gy gamma radiation alone.

[1] = "200×2" group: 10 mg/Kg i.p. 18 and 6 hours before 8 Gy gamma radiation
[2] = "500×2" group: 25 mg/Kg i.p. 18 and 6 hours before 8 Gy gamma radiation

Question: “(E)-4-Fluorostyryl-4-cyanobenzylsulfone [Compound 6]” was tested. Which “Activity (radioprotective activity, fold protection: colonies test/control)” value (HFL-1 cells) did it give?
Answer: + (radioprotective activity of between 2- and 4.5-fold at the concentrations tested)

Question: How did the “Activity (radioprotective activity, fold protection: colonies test/control)” value (HFL-1 cells) turn out when “(E)-2,4,6-Trimethoxystyryl-4-methoxybenzylsulfone [Compound 2]” was run?
Answer: + (radioprotective activity of between 2- and 4.5-fold at the concentrations tested)

Question: Which “Activity (radioprotective activity, fold protection: colonies test/control)” value (HFL-1 cells) does the source give for O=S(=O)(/C=C\c1ccc(F)cc1)Cc1ccc(Cl)cc1 [Compound 7, (Z)-4-Fluorostyryl-4-chlorobenzylsulfone] here?
Answer: + (radioprotective activity of between 2- and 4.5-fold at the concentrations tested)

Question: How did the “Activity (radioprotective activity, fold protection: colonies test/control)” value (HFL-1 cells) turn out when O=S(=O)(/C=C/c1ccoc1)Cc1ccc(Cl)cc1Cl [Compound 8, (E)-3-Furanethenyl-2,4-dichlorobenzylsulfone] was run?
Answer: + (radioprotective activity of between 2- and 4.5-fold at the concentrations tested)

Question: “(E)-4-Fluorostyryl-4-chlorophenylsulfone [Compound 10]” was tested. Which “Activity (radioprotective activity, fold protection: colonies test/control)” value (HFL-1 cells) did it give?
Answer: + (radioprotective activity of between 2- and 4.5-fold at the concentrations tested)

Question: Which results are given for O=C(O)c1ccc(/C=C/S(=O)(=O)Cc2ccc(Cl)cc2)cc1 [Compound 13, (E)-4-Carboxystyryl-4-chlorobenzylsulfone]?
Answer: Maximum mortality rate by day 40 (C57 black mice; [1]): approximately 60%; Mice dead at day 20 post-irradiation (C57 black mice; [1]): about 50%; Maximum mortality rate by day 40 (C57 black mice; [2]): about 50%; Mice dead at day 20 post-irradiation (C57 black mice; [2]): about 30%; Radiation toxicity in mice (C57 black mice; pretreatment 18 and 6 hours before 8 Gy gamma radiation): significantly reduced; Additive tumor cell killing effect (DU145 cells; 20 uM added immediately following 10 Gy IR): additive tumor cell killing effect; Interference with killing of tumor cells by ionizing radiation (DU145 cells): did not interfere with the killing of tumor cells by ionizing radiation; Radioprotection by post-irradiation treatment versus pre-irradiation treatment (C57 B6/J mice; "200 Post" vs "200×2" group, 8 Gy gamma radiation): not as great as seen with pre-irradiation treatment; Radiation-induced mortality compared with control animals (C57 B6/J mice; "200 Post": 10 mg/Kg i.p. 15 minutes after 8 Gy gamma radiation): significant delay in radiation-induced mortality; Activity (radioprotective activity, fold protection: colonies test/control) (HFL-1 cells): + (radioprotective activity of between 2- and 4.5-fold at the concentrations tested)

Question: “(Z)-Styryl-(E)-2-methoxy-4-ethoxystyrylsulfone [Compound 11]” was tested. Which “Activity (radioprotective activity, fold protection: colonies test/control)” value (HFL-1 cells) did it give?
Answer: + (radioprotective activity of between 2- and 4.5-fold at the concentrations tested)

Question: For “(E)-4-Fluorostyryl-4-trifluoromethylbenzylsulfone [Compound 5]”, which “Activity (radioprotective activity, fold protection: colonies test/control)” value (HFL-1 cells) is on record?
Answer: + (radioprotective activity of between 2- and 4.5-fold at the concentrations tested)

Question: With O=S(=O)(/C=C/c1ccc(F)cc1)Cc1ccc(Cl)cc1 [Compound 1, (E)-4-Fluorostyryl-4-chlorobenzylsulfone] as the compound, how does the “Additive tumor cell killing effect” value (DU145 cells; 2.0 uM added immediately following 10 Gy IR) read?
Answer: additive tumor cell killing effect

Question: And the “Interference with killing of tumor cells by ionizing radiation” value (DU145 cells)?
Answer: did not interfere with the killing of tumor cells by ionizing radiation

Question: And the “Activity (radioprotective activity, fold protection: colonies test/control)” value (HFL-1 cells)?
Answer: + (radioprotective activity of between 2- and 4.5-fold at the concentrations tested)
